Assay [1] addresses T1, human nociceptin receptor (Homo sapiens, UniProt P41146).
T1 construct: expressed in transfected cells
The experiment in a line: Nociceptin receptor binding assay ([3H]nociceptin). Conditions: cell membrane of human nociceptin receptor-expressing cell, 0.08 nM [3H]nociceptin, 25° C. 60 minutes; read-out: Affinity for nociceptin receptors Ki value. The method, then: Nociceptin Receptor Binding Assay
A cell membrane suspension obtained from a human nociceptin receptor-expressing cell was prepared so that it contained 5 to 10 μg/mL of the membrane protein in a Tris buffer [50 mM Tris-HCl (pH7.8), 5 mM MgCl2, 1 mM EGTA [Ethylene Glycol Bis(β-aminoethylether)-N,N,N′,N′-tetraacetic Acid], 0.1% BSA (Bovine Serum Alubumin)]. To this, [^3H]nociceptin (diluted at the final concentration of 0.08 nM with the Tris buffer) and each test compound was added and the mixture was incubated at 25° C. for 60 minutes. Using a cell harvester and a washing solution [50 mM Tris-HCl (pH7.8), 4° C.], the membrane was recovered onto a GF/B filter which had been pretreated with 0.3% PEI (polyethylenimine), which was then washed further 3 times. The filter was transferred to a vial, to which a scintillator was added, and the radioactivity was measured using a liquid scintillation counter. Noted that a non-specific binding was regarded as a binding in the presence of 10 μM nociceptin, and a specific binding was obtained by subtracting the non-specific binding from the total binding. From a ratio of binding inhibition in the presence of the tested substance, an IC50 value was obtained, and was then used together with the Kd value for [^3H]nociceptin to calculate the Ki value for the tested substance.

The next assay deals with ICR male mice. The experiment in a line: Mouse eye-scratching behavior induced by serotonin. In kind it is in vivo. To be noted: 0.5% test compound, 10 μl dropped into eye five minutes before 1% serotonin; counted for 10 minutes. How it is done:
Effect on Mouse Eye-scratching Behavior Induced by Serotonin
After dropping 10 μl of 1% serotonin hydrochloride (hereinafter referred to as serotonin) into right eye of ICR male mice (4 to 6 weeks old), the number of eye-scratcing behavior induced by dropping of serotonin was measured for 10 minutes.
As the test compound, inventive compounds of Example 1, Example 2, Example 3, Example 6, Example 12, Example 29, Example 52, Example 364, Example 381 and Example 383 were used. Five minutes before dropping serotonin, 10 μl of each test compound was dropped. Distilled water as a solvent of the test compound was dropped as a control group.

A further assay addresses T2, rat μ opioid receptor (Rattus norvegicus, UniProt P33535).
T2 construct: expressed in transfected cells
The experiment in a line: μ opioid receptor binding assay ([3H]diprenorphine). To be noted: rat μ opioid receptor-expressing cell membrane, 0.5 nM [3H]diprenorphine, 25° C. 60 minutes; read-out: Affinity for μ receptors Ki value. How it is done: μ Opioid Receptor Binding Assay
A rat μ opioid receptor-expressing cell membrane preparation was prepared so that it contained 8.5 μg/mL of the membrane protein in a Tris buffer [50 mM Tris-HCl (pH7.8), 5 mM MgCl2, 1 mM EGTA, 0.1% BSA]. To this, [^3H]diprenorphine (diluted at the final concentration of 0.5 nM with the Tris buffer) and each test compound was added and the mixture was incubated at 25° C. for 60 minutes. Using a cell harvester and a washing solution [50 mM Tris-HCl (pH7.8), 4° C.], the membrane was recovered onto a GF/B filter which had been pretreated with 0.3% PEI, which was then washed further 3 times. The filter was transferred to a vial, to which a scintillator was added, and the radioactivity was measured using a liquid scintillation counter. Noted that a non-specific binding was regarded as a binding in the presence of […], and a specific binding was obtained by subtracting the non-specific binding from the total binding. From a ratio of binding inhibition in the presence of the tested substance, an IC50 value was obtained, and was then used together with the Kd value for [^3H]diprenorphine to calculate the Ki value for the tested substance.

SMILES strings stand for the structures. Counter-ions that a name gives are not always drawn.

T2 sequence (P33535 whole entry): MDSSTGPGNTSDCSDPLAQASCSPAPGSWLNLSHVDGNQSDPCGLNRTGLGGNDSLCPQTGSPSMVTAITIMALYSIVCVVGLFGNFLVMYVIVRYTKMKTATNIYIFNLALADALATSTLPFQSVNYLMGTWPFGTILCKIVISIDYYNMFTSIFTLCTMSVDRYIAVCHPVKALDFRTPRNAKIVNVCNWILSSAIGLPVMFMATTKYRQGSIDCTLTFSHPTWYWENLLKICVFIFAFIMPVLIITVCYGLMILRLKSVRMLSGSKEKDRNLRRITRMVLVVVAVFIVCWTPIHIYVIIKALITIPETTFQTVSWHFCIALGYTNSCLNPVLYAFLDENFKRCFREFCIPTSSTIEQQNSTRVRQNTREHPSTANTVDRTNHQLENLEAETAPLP
T1 sequence (P41146 whole entry): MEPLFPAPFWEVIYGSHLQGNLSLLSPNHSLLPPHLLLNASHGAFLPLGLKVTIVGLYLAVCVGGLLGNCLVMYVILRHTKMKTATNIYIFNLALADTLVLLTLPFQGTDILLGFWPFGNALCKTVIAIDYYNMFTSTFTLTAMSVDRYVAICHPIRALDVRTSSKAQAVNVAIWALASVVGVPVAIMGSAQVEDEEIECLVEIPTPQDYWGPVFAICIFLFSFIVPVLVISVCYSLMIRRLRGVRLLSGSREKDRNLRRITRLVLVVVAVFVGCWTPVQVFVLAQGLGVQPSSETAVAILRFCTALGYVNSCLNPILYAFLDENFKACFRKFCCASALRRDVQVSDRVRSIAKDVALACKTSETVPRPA

Take `Cc1ccc2nc(NC(=O)c3cc4ccccc4o3)nc(N[C@H]3CCCC[C@H]3NC(=N)N)c2c1.Cl.Cl` [Example 3, N-{4-[((1S,2R)-2-{[amino(imino)methyl]amino}cyclohexyl)amino]-6-methylquinazolin-2-yl}-1-benzofuran-2-carboxamide dihydrochloride]: the Ki was 0.00014 µM in assay [1] and 0.26 µM at rat μ opioid receptor. In addition, the “Average number of scratching behavior” value in the assay with ICR male mice was 2.33.

On to `COc1ccc(C(=O)Nc2nc(N[C@H]3CCCC[C@H]3NC(=N)N)c3cc(C)ccc3n2)cc1.Cl.Cl` [Example 12, N-{4-[((1S,2R)-2-{[amino(imino)methyl]amino}cyclohexyl)amino]-6-methylquinazolin-2-yl}-4-methoxybenzamide dihydrochloride], for which the Ki in assay [1] was determined as 0.00057 µM; at rat μ opioid receptor, 0.68 µM. Also, in the assay on ICR male mice, the “Average number of scratching behavior” value was determined as 8.17.

As to `COc1ccc(NC(=O)c2nc(N[C@H]3CCCC[C@H]3NC(=N)N)c3cc(C)ccc3n2)cc1.Cl.Cl` [Example 2, 4-[((1S,2R)-2-{[amino(imino)methyl]amino}cyclohexyl)amino]-N-(4-methoxyphenyl)-6-methylquinazoline-2-carboxamide dihydrochloride], the “Average number of scratching behavior” value with ICR male mice is on record as 7.25.

In the case of `COc1ccc2cc(C(=O)Nc3nc(N[C@H]4CCCC[C@H]4NC(=N)N)c4cc(C)ccc4n3)ccc2c1` [Example 7, N-{4-[((1S,2R)-2-{[amino(imino)methyl]amino}cyclohexyl)amino]-6-methylquinazolin-2-yl}-6-methoxy-2-naphthamide dihydrochloride], the Ki in assay [1] was determined as 0.00065 µM; on rat μ opioid receptor it was 0.57 µM.

As to `Cc1ccc2nc(C(=O)NCC(C)C)nc(N[C@H]3CCCC[C@H]3NC(=N)N)c2c1.Cl.Cl` [Example 383, 4-[((1S,2R)-2-{[amino(imino)methyl]amino}cyclohexyl)amino]-N-isobutyl-6-methylquinazoline-2-carboxamide dihydrochloride], the “Average number of scratching behavior” value with ICR male mice worked out at 2.33.

`Cc1ccc2nc(NC(=O)c3cc4ccccc4s3)nc(N[C@H]3CCCC[C@H]3NC(=N)N)c2c1.Cl.Cl` [Example 1, N-{4-[((1S,2R)-2-{[amino(imino)methyl]amino}cyclohexyl)amino]-6-methylquinazolin-2-yl}-1-benzothiophene-2-carboxamide dihydrochloride]: the inhibition constant Ki worked out at 0.00015 µM in assay [1] and 0.18 µM at rat μ opioid receptor. The “Average number of scratching behavior” value in the assay on ICR male mice is given as 9.57.

For the compound `Cc1ccc2nc(C(=O)NC3CCCCCC3)nc(N[C@H]3CCCC[C@H]3NC(=N)N)c2c1.Cl.Cl` [Example 364, 4-[((1S,2R)-2-{[amino(imino)methyl]amino}cyclohexyl)amino]-N-cycloheptyl-6-methylquinazoline-2-carboxamide dihydrochloride], the “Average number of scratching behavior” value with ICR male mice turned out to be 5.17.

As for `COc1ccc(C(=O)Nc2nc(N[C@H]3CCCC[C@H]3NC(=N)N)c3cc(C)ccc3n2)c(OC)c1.Cl.Cl` [Example 6, N-{4-[((1S,2R)-2-{[amino(imino)methyl]amino}cyclohexyl)amino]-6-methylquinazolin-2-yl}-2,4-dimethoxybenzamide dihydrochloride], the Ki was 0.00067 µM in assay [1] and 0.55 µM on rat μ opioid receptor. Also, the “Average number of scratching behavior” value in the assay with ICR male mice came to 2.38.

With `Cc1ccc2nc(C(=O)Nc3ccc(C)c(C)c3)nc(N[C@H]3CCCC[C@H]3NC(=N)N)c2c1.Cl.Cl` [Example 52, 4-[((1S,2R)-2-{[amino(imino)methyl]amino}cyclohexyl)amino]-N-(3,4-dimethylphenyl)-6-methylquinazoline-2-carboxamide dihydrochloride], in the assay with ICR male mice, the “Average number of scratching behavior” value turned out to be 4.50.

As for `Cc1ccc2nc(C(=O)NCC(C)(C)C)nc(N[C@H]3CCCC[C@H]3NC(=N)N)c2c1.Cl.Cl` [Example 29, 4-[((1S,2R)-2-{[amino(imino)methyl]amino}cyclohexyl)amino]-6-methyl-N-neopentylquinazoline-2-carboxamide dihydrochloride], the “Average number of scratching behavior” value in the assay with ICR male mice is 1.67.

Take `Cc1ccc2nc(C(=O)NCCc3ccsc3)nc(N[C@H]3CCCC[C@H]3NC(=N)N)c2c1.Cl.Cl` [Example 381, 4-[((1S,2R)-2-{[amino(imino)methyl]amino}cyclohexyl)amino]-6-methyl-N-[2-(3-thienyl)ethyl]quinazoline-2-carboxamide dihydrochloride]: in the assay with ICR male mice, the “Average number of scratching behavior” value was found to be 5.00.

Broadly, the Ki is a dissociation constant, usually derived from enzyme kinetics or from competition with a known ligand.

Values taken from US7718663B2, “Quinazoline derivatives and medicaments” (Nippon Shinyaku Co., Ltd., priority 2002, dated 2010).
